Positions of bridges follow the written chain, without caps; N, C: chain ends. Residues, ends and D or L forms follow the SMILES beside them.
Columns and labels:
[1] = tested on: K562 cell-line; test: Cytotoxicity assay, K562 cell line; type: cell-based; conditions: literature protocols [21],[22]
Protocol: (§1) The cytotoxicity assays were performed in accord with literature protocols. The Na^+/K^+-ATPase inhibition assay was performed according to the previously described method.

[2] = tested on: A549 cell-line; test: Cytotoxicity assay, A549 cell line; type: cell-based; conditions: literature protocols [21],[22]
Protocol: as §1

[3] = molecular target: Na+/K+-ATPase; test: Na+/K+-ATPase inhibition assay; type: biochemical; conditions: previously described method [23]
Protocol: as §1

[4] = tested on: A549 cell-line; conditions: cited from earlier work
Source text: (§2) In our search for bioactive metabolites from sponges found in Korean waters, we recently reported the structural determination of gombamide A, a cyclic thiohexapeptide from Clathria gombawuiensis. […] In our continuing search for bioactive metabolites in sponges, we report here the isolation and structural determinations of chujamides A (1) and B (2), new cyclic cystine bridged peptides from the sponge Suberites waedoensis (Figure 1). These proline- ...

[5] = tested on: K562 cell-line; conditions: cited from earlier work
Source text: as §2

[6] = tested on: Na+/K+-ATPase; conditions: cited from earlier work
Source text: as §2

| Molecule | LC50, cytotoxicity toward K562 [1] [µM] | LC50, cytotoxicity toward A549 [2] [µM] | IC50 [3] [µM] | cytotoxicity against A549 (in words) [4] | cytotoxicity against K562 (in words) [5] | inhibitory activity against Na+/K+-ATPase (in words) [6] |
| --- | --- | --- | --- | --- | --- | --- |
| CC[C@H](C)[C@H](NC(=O)CN)C(=O)N[C@H]1CSSC[C@@H](C(=O)O)NC(=O)[C@H]([C@@H](C)CC)NC(=O)[C@@H]2CCCN2C(=O)[C@H](CC(C)C)NC(=O)[C@H](Cc2ccccc2)NC(=O)[C@@H]2CCCN2C(=O)[C@@H]2CCCN2C(=O)[C@H](Cc2ccc(O)cc2)NC(=O)[C@@H]2CCCN2C1=O [Compound 1, chujamide A] (H-GICPYPPFLPIC-OH; disulfide 3-12) | 37.0 | 10.1 |  |  |  |  |
| CC[C@H](C)[C@H](N)C(=O)N[C@H]1CSSC[C@@H](C(=O)O)NC(=O)[C@H]([C@@H](C)CC)NC(=O)[C@@H]2CCCN2C(=O)[C@H](CC(C)C)NC(=O)[C@H](Cc2ccccc2)NC(=O)[C@@H]2CCCN2C(=O)[C@@H]2CCCN2C(=O)[C@H](Cc2ccc(O)cc2)NC(=O)[C@@H]2CCCN2C1=O [Compound 2, chujamide B] (H-ICPYPPFLPIC-OH; disulfide 2-11) | 55.6 | 26.4 | 17.2 |  |  |  |
| COc1cccc2c1C(=O)c1c(O)c3c(c(O)c1C2=O)C[C@@](O)(C(=O)CO)C[C@@H]3O[C@H]1C[C@H](N)[C@H](O)[C@H](C)O1 [doxorubicin] | 1.5 | 1.3 |  |  |  |  |
| gombamide A |  |  |  | exhibited cytotoxicity | exhibited cytotoxicity | inhibitory activity |
